Active and inactive are the calls of the source. The calls are words filed in the database; no cut-off is given here.
Tests used:
[1] = Antiproliferative activity against human 786-O cells after 96 hrs by SRB assay; assay type: functional, cell-based; details: 786-0, 96 h
HOS-TE85 = test: Antiproliferative activity against human MNNG-HOS cells after 96 hrs by SRB assay; assay type: functional, cell-based; details: HOS-TE85, 96 h
PC-3 = test: Antiproliferative activity against human PC3 cells after 96 hrs by SRB assay; assay type: functional, cell-based; details: PC-3, 96 h
Nucleic Acid [2] = test: Binding affinity to HIF1alpha DNA by surface plasmon resonance assay; assay type: nucleic-acid assay
Nucleic Acid [3] = test: Binding affinity to 5'-GGGGCGGGCACGGGGCGGG-3' DNA by surface plasmon resonance; assay type: nucleic-acid assay
MCF7 = test: Antiproliferative activity against human MCF7 cells after 96 hrs by SRB assay; assay type: functional, cell-based; details: MCF7, 96 h
MG-63 = test: Antiproliferative activity against human MG63 cells after 96 hrs by SRB assay; assay type: functional, cell-based; details: MG-63, 96 h
HOS = test: Antiproliferative activity against human HOS cells after 96 hrs by SRB assay; assay type: functional, cell-based
[4] = Antiproliferative activity against human TC71 cells after 96 hrs by SRB assay; assay type: functional, cell-based; details: TC-71, 96 h
U2OS = test: Antiproliferative activity against human U2OS cells after 96 hrs by SRB assay; assay type: functional, cell-based
A498 = test: Antiproliferative activity against human A498 cells after 96 hrs by SRB assay; assay type: functional, cell-based; details: A498, 96 h
HPAC = test: Antiproliferative activity against human HPAC cells after 96 hrs by SRB assay; assay type: functional, cell-based
[5] = Antiproliferative activity against human RCC4/VHL cells after 96 hrs by SRB assay; assay type: functional, cell-based
Nucleic Acid [6] = test: Binding affinity to HIF2alpha DNA by surface plasmon resonance assay; assay type: nucleic-acid assay
[7] = Antiproliferative activity against human RCC4 cells after 96 hrs by SRB assay; assay type: functional, cell-based; details: RCC4, 96 h
OST = test: Antiproliferative activity against human OST cells after 96 hrs by SRB assay; assay type: functional, cell-based
[8] = Antiproliferative activity against human TC32 cells after 96 hrs by SRB assay; assay type: functional, cell-based; details: TC-32, 96 h
WI-38 = test: Cytotoxicity against human WI38 after 96 hrs by SRB assay; assay type: cell-based; details: WI-38, 96 h
A549 = test: Antiproliferative activity against human A549 cells after 96 hrs by SRB assay; assay type: functional, cell-based; details: A549, 96 h
SAOS-2 = test: Antiproliferative activity against human Saos2 cells after 96 hrs by SRB assay; assay type: functional, cell-based; details: SAOS-2, 96 h
MIA PaCa-2 = test: Antiproliferative activity against human MIAPaCa2 cells after 96 hrs by SRB assay; assay type: functional, cell-based; details: MIA PaCa-2, 96 h
[9] = Antiproliferative activity against human TC135 cells after 96 hrs by SRB assay; assay type: functional, cell-based; details: TC135, 96 h
PANC-1 = test: Antiproliferative activity against human PANC1 cells after 96 hrs by SRB assay; assay type: functional, cell-based; details: PANC-1, 96 h

| IC50 (PC-3) | IC50 (MCF7) | IC50 (U2OS) | IC50 (A549) | IC50 (MIA PaCa-2) | IC50 (PANC-1) | SMILES | IC50 [1] | IC50 (HOS-TE85) | IC50 (MG-63) | IC50 (HOS) | IC50 [4] | IC50 (A498) | IC50 (HPAC) | IC50 [5] | IC50 [7] | IC50 (OST) | IC50 [8] | IC50 (WI-38) | IC50 (SAOS-2) | IC50 [9] | also measured |
| --- | --- | --- | --- | --- | --- | --- | --- | --- | --- | --- | --- | --- | --- | --- | --- | --- | --- | --- | --- | --- | --- |
| > 100 µM | 100 µM | 22 µM | > 100 µM | > 100 µM | > 100 µM | CCN(CC)CC(=O)Nc1ccc(-n2cc(-c3ccc4ccc(-c5cn(-c6ccc(NC(=O)CN(CC)CC)cc6)nn5)cc4c3)nn2)cc1 | 23 µM | 25 µM | 81 µM | 75 µM | > 100 µM | 8 µM | 52 µM | 26 µM | 22 µM | 37 µM | 29 µM | 9 µM | 95 µM | 23 µM | K (Nucleic Acid [2]): 1.25 ×10⁷ /M; K (Nucleic Acid [3]): inactive; K (Nucleic Acid [6]): 0.15 ×10⁷ /M |
| 25 µM | > 100 µM | 22 µM | 72 µM | > 100 µM | 29 µM | O=C(CN1CCCC1)Nc1cccc(-n2cc(-c3ccc4ccc(-c5cn(-c6cccc(NC(=O)CN7CCCC7)c6)nn5)cc4c3)nn2)c1 | 6.9 µM | 9 µM | 16 µM | 2 µM | 75 µM | 3.1 µM | 9 µM | 2.4 µM | 3.2 µM | 7.1 µM | 3 µM | 17 µM | 5.8 µM | 11 µM |  |
| 7.8 µM | 21 µM | 7.8 µM | 29 µM | 17.5 µM | 7.4 µM | CCN(CC)CCC(=O)Nc1cccc(-n2cc(-c3ccc4ccc(-c5cn(-c6cccc(NC(=O)CCN(CC)CC)c6)nn5)cc4c3)nn2)c1 | 9.8 µM | 3.1 µM |  |  | 28 µM | 9.9 µM |  | 2.7 µM | 1.6 µM | 2.1 µM | 2.5 µM | 10.6 µM | 2.8 µM | 2.6 µM |  |
| > 100 µM | > 100 µM | 22 µM | > 100 µM | > 100 µM | > 100 µM | O=C(CN1CCCCC1)Nc1cccc(-n2cc(-c3ccc4ccc(-c5cn(-c6cccc(NC(=O)CN7CCCCC7)c6)nn5)cc4c3)nn2)c1 | 17.5 µM | 23 µM | 90 µM | 47 µM | 81 µM | 19 µM | 96 µM | 2.7 µM | 2.6 µM | 37 µM | 6.6 µM | > 10 µM | 16 µM | 14 µM | K (Nucleic Acid [2]): 0.81 ×10⁷ /M; K (Nucleic Acid [3]): inactive; K (Nucleic Acid [6]): 0.59 ×10⁷ /M |

From ChEMBL document CHEMBL2069296, “A novel series of G-quadruplex ligands with selectivity for HIF-expressing osteosarcoma and renal cancer cell lines” (Bioorg Med Chem Lett, 2012)
